In US8440637B2, “Combination treatment for the treatment of hepatitis C virus infection” (priority 2007, dated 2013):
Strand notation (5' to 3'): a small letter for the sugar, then the base; units joined by * are phosphorothioate-linked, units joined directly phosphodiester-linked; [ ] holds rarer units or linkages, { } end groups; capitals alone tell only the bases. l = locked nucleic acid (LNA); [5mC] = 5-methylcytosine; d = 2'-deoxy (DNA)

How the values were obtained:
ApoB-100 mRNA [1] = assay: Serum total cholesterol after dosing apoB antisense oligonucleotides; assay type: in vivo, mouse
Experimental: Total cholesterol level is measured in plasma using a colometric assay Cholesterol CP from ABX Pentra. The cholesterol is measured following enzymatic hydrolysis and oxidation. 21.5 μL water was added to 1.5 μL plasma. 250 μL reagent is added and within 5 min the cholesterol content is measured at a wavelength of 540 nm. Measurements on each animal was made in duplicates. The sensitivity and linearity was tested with 2 fold diluted control compound (ABX Pentra N control). The relative Cholesterol level was determined by subtraction of the background and presented relative to the cholesterol levels in plasma of saline treated mice.
(§1) In this study 5 mg/kg/dose were dosed on 3 consecutive days (one dose/day i.v.) and animals were sacrificed 24 hours after last dosing. At sacrifice, liver and retro orbital sinus blood was sampled. Serum was prepared from blood for analysis of cholesterol. RNA was isolated from the liver and the expression of ApoB-100 mRNA was measured.
(§2) In this study three different concentrations (10, 15 and 25 mg/kg) of SEQ ID NO 17 (Table 1) and SEQ ID NO 34 (Table 1) were examined for duration of action on ApoB-100 mRNA expression and serum cholesterol level. SEQ ID NO 17 and SEQ ID NO 34 were given as a single dose of 10, 15 or 25 mg/kg to C57BL/6 female mice. Mice were sacrificed at different time points (1, 3, 5 and 8 days) after dosing; liver and serum were examined for ApoB-100 mRNA expression, liver oligonucleotide concentration and cholesterol and ALT, respectively.
Blood serum used to measure cholesterol was sampled at sacrifice. Twenty-four hours after dosing SEQ ID NO 17 serum total cholesterol was reduced 25-40%, and dosing SEQ ID NO 34 gave 40-55% reduction in total cholesterol. At day 3, the total cholesterol level was further reduced: SEQ ID NO 17 gave 70-90% reduction in a dose dependent manner after doing 10, 15 or 25 mg/kg. SEQ ID NO 34 reduced total cholesterol with 90-95% relative to the saline control group. At day 5-8 the total cholesterol level increased in all groups except the group dosed SEQ ID NO 17 at 10 mg/kg. (FIG. 4.).
Blood serum was sampled at sacrifice and used to measure cholesterol. The serum total cholesterol level reflected the mRNA expression of ApoB-100; dose dependent reduction with best effect at 5 days after dosing SEQ ID NO 17 at 1 and 2.5 mg/kg and similar effect at days 3, 5 and 8 after dosing 5 mg/kg (50% reduction). Dose dependent effect was also obtained after dosing SEQ ID NO 34 with best effect at day 3 after dosing 5 mg/kg (70% reduction) with following increase in cholesterol level (60% reduction at day 8 and 45% at day 16).
At sacrifice blood for serum was sampled and used to measure cholesterol.

ApoB-100 mRNA [2] = assay: ApoB-100 mRNA expression in liver by qPCR after dosing apoB antisense oligonucleotides; assay type: in vivo, mouse; settings: for ApoB-100 mRNA down-regulation (in words): 10, 15 or 25 mg/kg SEQ ID NO 34, 25 mg/kg SEQ ID NO 17; for down regulation of ApoB-100 mRNA relative to saline: single dose of 10, 15 or 25 mg/kg, C57BL/6 female mice, 24 hours after dosing; for reduction of ApoB-100 mRNA expression: day 8
Experimental: as §1, §2
(§3) Liver sampled at sacrifice was analysed for ApoB-100 mRNA expression by qPCR. Data was normalized to Gapdh and presented relative to the data obtained by dosing saline. One dose of 10, 15 or 25 mg/kg of SEQ ID NO 17 or SEQ ID NO 34 was very effective to down regulate ApoB-100 mRNA in liver (FIG. 3).
A single dose of SEQ ID NO 17 (Table 1) and SEQ ID NO 34 (Table 1) at different concentrations was administered to C57BL/6J mice to find ED50 values for cholesterol. Duration of action was also included in this study, because we previously have seen that maximum effect of a single dose not always was achieved 24 hours after dosing. […] In this study we therefore have chosen lower concentrations (1, 2.5 and 5 mg/kg).
Liver sampled at sacrifice was analysed for ApoB-100 mRNA expression by qPCR. Data was normalized to Gapdh and presented relative to the data obtained by dosing saline. One dose of 10, 15 or 25 mg/kg of SEQ ID NO 17 or SEQ ID NO 34 was very effective to down regulate ApoB-100 mRNA in liver (FIG. 5).
The effect on ApoB-100 mRNA was examined at different days after dosing 1.0 or 5.0 mg/kg (one dose day 0) of the three LNA antisense oligonucleotides 12-mer SEQ ID NO 34 (Table 1), SEQ ID NO 26 (Table 1) 13-mer and 14-mer SEQ ID NO 17 (Table 1) all targeting ApoB mRNA.
as §3, with “Dosing 3* 1” for “One dose of 10, 15”, “5” for “25”, “of SEQ ID NO 34,” for “of”, “26” for “34”, “7). […] SEQ ID NO 17 dosed 3* 1 mg/kg/dose or 5 mg/kg/dose down regulated target mRNA with 50% and 70% respectively.” for “3).”

[3] = liver, 3 doses of 5 mg/kg/dose i.v. on consecutive days, 24 hours after last dosing
[4] = single dose of 10, 15 or 25 mg/kg, 24 hours after dosing
[5] = single dose of 10, 15 or 25 mg/kg, day 3

Substance	reduction of serum total cholesterol (ApoB-100 mRNA [1]; 3 doses of 5 mg/kg/dose i.v., at sacrifice, day 3)	down regulation of ApoB-100 mRNA (ApoB-100 mRNA [2]; [3])	reduction of serum cholesterol (ApoB-100 mRNA [1]; dosing 3*1 mg/kg) [%]	down regulation of ApoB-100 mRNA (ApoB-100 mRNA [2]; liver, dosing 3*1 mg/kg i.v.) [%]	down regulation of ApoB-100 mRNA (ApoB-100 mRNA [2]; liver, dosing 3*5 mg/kg i.v.) [%]	reduction of serum cholesterol (ApoB-100 mRNA [1]; dosing 3*5 mg/kg/dose) [%]	reduction of serum total cholesterol (ApoB-100 mRNA [1]; single dose 5 mg/kg, days 3, 5 and 8) [%]	reduction of serum total cholesterol (ApoB-100 mRNA [1]; [4])	reduction of serum total cholesterol (ApoB-100 mRNA [1]; [5])	ApoB-100 mRNA down-regulation (in words) (ApoB-100 mRNA [2])	down regulation of ApoB-100 mRNA relative to saline (ApoB-100 mRNA [2]; liver)	reduction of ApoB-100 mRNA expression (ApoB-100 mRNA [2]; single dose 5 mg/kg) [%]	duration of dose dependent down regulation of ApoB-100 mRNA (ApoB-100 mRNA [2]; single dose of 1, 2.5 or 5 mg/kg, C57BL/6J mice) [days]	effect on serum total cholesterol (in words) (ApoB-100 mRNA [1]; 3 doses of 5 mg/kg/dose i.v., day 3, oligos of different length compared)	reduction of serum total cholesterol (ApoB-100 mRNA [1]; single dose 5 mg/kg, day 3) [%]	reduction of serum total cholesterol (ApoB-100 mRNA [1]; single dose 5 mg/kg, day 8) [%]	reduction of serum total cholesterol (ApoB-100 mRNA [1]; single dose 5 mg/kg, day 16) [%]	reduction of ApoB-100 mRNA expression (ApoB-100 mRNA [2]; single dose 2.5 mg/kg) [%]	ApoB-100 mRNA down regulation (ApoB-100 mRNA [2]; single dose 5 mg/kg, day 16) [%]	down regulation of ApoB-100 mRNA (ApoB-100 mRNA [2]; single dose 5 mg/kg, days 5-16)
5′-AsGs^MeCsaststsgsgstsastsTs^MeCsAsg-3′ (antisense lA*lG*l[5mC]*dA*dT*dT*dG*dG*dT*dA*dT*lT*l[5mC]*lA*dG) [SEQ ID NO: 16]	about 18%	25-30%	–	–	–	–	–	–	–	–	–	–	–	–	–	–	–	–	–	–
5′-Gs^MeCsaststsgsgstsastsTs^MeCsA-3′ (antisense lG*l[5mC]*dA*dT*dT*dG*dG*dT*dA*dT*lT*l[5mC]*lA) [SEQ ID NO: 26]	–	–	60	60	90	–	–	–	–	–	–	–	–	–	–	–	–	–	–	–
5′-AsGs^MeCsaststsgsgstsastsTs^MeCsA-3′ (antisense lA*lG*l[5mC]*dA*dT*dT*dG*dG*dT*dA*dT*lT*l[5mC]*lA) [SEQ ID NO: 17]	–	about 75%	40	50	70	70	50	25-40%	70-90%	completely down-regulated	70-85%	75	5	–	–	–	–	–	–	–
5′-Gs^MeCsaststsgsgstsastsTs^MeC-3′ (antisense lG*l[5mC]*dA*dT*dT*dG*dG*dT*dA*dT*lT*l[5mC]) [SEQ ID NO: 34]	–	about 75%	60	60	90	–	–	40-55%	90-95%	completely down-regulated	90-95%	–	–	the best or the most potent effect	70	60	45	75	75	about 75%
